US20090291887A1, “Proteins of the SDF-1-Family for the Manufacturing of a Medicament” (priority 2006, published 2009)

Experiments:
[1] = test system: Ser-133 phosphorylated CREB in DRG neurons; assay: PhosphoCREB assay; format: cell-based, rat; conditions: P6 DRG neurons; 200 ng/ml; versus untreated cultures (FIG. 5)
Protocol: Determination of Ser-133 phosphorylated CREB was performed on glass coverslips coated with PDL (1 mg/ml, Sigma) and laminin (13 μg/ml, Sigma). Dissociated DRGs were plated at a density of 5×10^4 cells/cm2 and incubated in DMEM containing 10% fetal bovine serum, nerve growth factor-2.5S, penicilline/streptomycine, and 5′-fluoro-2′-desoxyuridine for 24 h. Cells were stimulated by application of either 200 ng/ml SDF-1a/CXCL12 or 6 μM forskolin (Sigma), respectively, for 1-120 min. Samples were fixed with […] and stained for phophoCREB. Nuclei of P6 DRG neurons were stained with DAPI. For quantitative analysis of phosphoCREB-immunoreactivity, 30 pictures per coverslip were taken randomly at 20× magnification, and the number of neurons displaying phosphoCREB-positive nuclei as well as the total number of neurons were determined.

[2] = test system: DRG neurons; assay: Myelin-inhibition assay (neurite growth of DRG neurons on laminin/myelin); format: cell-based, rat
Protocol: Spinal neurons from the dorsal root ganglia (DRG) of young rats (day 6 postnatal) were plated in parallel on culture substrates coated with either poly-D-lysine (PDL)/laminin (13 μg/ml) or PDL/laminin (13 μg/ml)+myelin (200 ng/culture). The myelin preparation has been obtained from rat brain by biochemical fractionation and employed as a suspension for coating the culture dishes.
The images shown in FIGS. 1-3 were recorded by immunofluorescence microscopy with PAM (panaxonal marker/neurofilament) antibody, and the visualization was effected by fluorescent dye (Alexa).

[3] = test system: CST-lesioned adult rats; assay: Rat model of spinal cord transection, CST axon sprouting (BDA tracing); format: in vivo
Protocol: The dura was opened at the thoracic level, and the vertebrae Th8 and Th9 were removed. The dorsal CST, dorsal columns and central canal were transected using a Scouten wire knife (Bilaney, Germany). Following the surgery, a silicon tube catheter was placed in the subdural space at 1 mm caudal to the lesion, and was connected to a mini-osmotic pump (Alzet) containing 200 μl of either SDF-1a/CXCL12 (10 μM in PBS) or Tris buffer. After the pump was fixed in place, the dura and overlying tissue were sutured, and the animals were allowed to recover. Application of either SDF-1a/CXCL12 or Tris buffer was carried out at a flow rate of 1 μl/h over a time period of 7 days. One week after lesion, the pump was removed in a second surgery.
A total volume of 2.3 μl biotinylated dextrane amine, BDA, (10%, Molecular Probes) was stereotactically injected into both hemispheres of the sensorimotor cortex. […] Briefly, animals were transcardially perfused with 40% PFA. The spinal cord was removed, postfixed in 4% PFA, and cryoprotected in sucrose (30%, Sigma) for 3-5 days. Spinal cord samples were shock frozen in methyl butane and cut into 20 μm thick sagittal cryostat slices. Sections were collected onto Histobond coated glass slides (Menzel, Germany). […] Briefly, sections were washed in PBS followed by incubation with avidin-Oregon (1:1000, in PBS) at 4° C. over night. […]

SDF-1α was tested, and the “proportion of nuclei displaying phosphoCREB-immunoreactivity” value [1] was “significantly increased”, the “myelin-associated inhibition of neurite growth” value ([2]; DRG neurons on PDL/laminin + myelin, SDF-1 Alpha 200 ng/ml (FIG. 3)) was “essentially neutralized” and the “neutralization of myelin inhibition, quantitative evaluation” value ([2]; FIG. 4, dose dependence) was “dose-dependent neutralization”. For the same substance, the “myelin-induced inhibition of the neurite growth of DRG neurons in vitro” value ([2]; concentration of 500 ng of SDF-1/ml) was “neutralized completely”, the “animals that displayed extensive sprouting” value ([3]; SDF-1a infusion, none out of three Tris buffer-infused rats) was “Two out of three” and the “sprouting of BDA-labelled CST axons within the proximal stump” value ([3]; subdural infusion by mini-osmotic pump, 10 μM, 1 μl/h, 7 days, versus Tris buffer (FIG. 6)) was “enhanced sprouting”.
